US7045658B2, “Formailide derivatives as beta2-adrenoreceptor agonists” (Glaxo Group Limited, priority 2001, dated 2006)

Target: T1, human beta 2 adrenoreceptor (Homo sapiens, UniProt P07550)
T1 construct: expressed in transfected cells; host or cells: frog melanophores
Assay: frog melanophores transfected with human beta 2 adrenoreceptor, pigment dispersal (light transmittance)
Assay type: cell-based
Details: melatonin-induced pigment aggregation, change in light transmittance, read-out: IC50 values at the human beta 2 adrenoreceptor (beta 2 agonist activity)
Procedure: The potencies of the aforementioned compounds were determined using frog melanophores transfected with the human beta 2 adrenoreceptor. The cells were incubated with melatonin to induce pigment aggregation. Pigment dispersal was induced by compounds acting on the human beta 2 adrenoreceptor. The beta 2 agonist activity of test compounds was assessed by their ability to induce a change in light transmittance across a melanophore monolayer (a consequence of pigment dispersal).

T1 sequence (P07550 whole entry): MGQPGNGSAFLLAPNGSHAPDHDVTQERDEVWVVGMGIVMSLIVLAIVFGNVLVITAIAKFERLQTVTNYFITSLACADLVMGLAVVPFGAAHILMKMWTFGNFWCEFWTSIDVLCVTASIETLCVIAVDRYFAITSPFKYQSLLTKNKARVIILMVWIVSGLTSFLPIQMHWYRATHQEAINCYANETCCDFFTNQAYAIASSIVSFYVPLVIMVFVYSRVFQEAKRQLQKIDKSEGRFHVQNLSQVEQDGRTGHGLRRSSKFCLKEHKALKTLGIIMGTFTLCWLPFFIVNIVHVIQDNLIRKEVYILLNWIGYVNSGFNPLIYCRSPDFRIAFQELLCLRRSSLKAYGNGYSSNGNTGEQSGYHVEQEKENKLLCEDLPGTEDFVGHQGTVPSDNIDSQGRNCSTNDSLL

NS(=O)(=O)c1cccc(CCCCOCCCCCCNC[C@H](O)c2ccc(O)c(NC=O)c2)c1 [Example 1, 3-(4-{[6-({(2R)-2-[3-(Formylamino)-4-hydroxyphenyl]-2-hydroxyethyl}amino)hexyl]oxy}butyl)benzenesulfonamide compound with (2E)-but-2-enedioic acid (2:1)]
IC50: < 1000 nM

CC(C)(C)NS(=O)(=O)c1cccc(CCCCOCCCCCCNC[C@H](O)c2ccc(O)c(NC=O)c2)c1 [Example 2, N-(tert-Butyl)-3-(4-{[6-({(2R)-2-[3-(formylamino)-4-hydroxyphenyl]-2-hydroxyethyl}amino)hexyl]oxy}butyl)benzenesulfonamide]
IC50: < 1000 nM
